Source: patent US9145424B2, “Treatment of amyotrophic lateral sclerosis” (Northwestern University, priority 2008, dated 2015)
Entries after “also recorded” stand apart in the source; their conditions may differ. Read-outs that look alike come from different tables or passages of the source. Each block holds one compound with its values, some of them ahead of it. Where a SMILES comes first, the peptide text is derived from it. The star is where a group is joined. Cbz = O=C(OCc1ccccc1)*

Columns and labels:
[1] = format: in vitro ADME; settings: male, Sprague Dawley, 15 μM, pH 7.4; for % Mean ± S.E. / RR Mean (Response Ratio): rat
[2] = tested on: Caco-2; test: In vitro Caco-2 permeability; format: in vitro ADME
Description: General Permeability: High membrane permeability is required for effective GI absorption and optimal bioavailability. Passive permeability is typically assessed in the PAMPA artificial membrane assay (Kansy et al., J. Med. Chem. 2002, 45(8), 1712-1722). Cell-based permeability determinations using the Caco-2 cell assay are more resource intensive but more predictive of active transport or efflux in vivo (Artursson et al., Adv. Drug. Deliv. Rev. 2001, 46(1-3), 27-43). Caco-2 assays are performed as needed during SAR development.

[3] = In vitro plasma stability; format: in vitro ADME
Description: Plasma stability: Plasma stability of active compounds is assessed in efficacy species (mouse), toxicity species (rat, dog, monkey), and human cells.

[4] = Aqueous solubility; format: physicochemical
Description: Solubility: Because compounds are stored in DMSO, it is necessary to determine aqueous solubility of initial hit compounds and their analogs. High solubility in aqueous solution is necessary for high GI absorption, bioavailability, and for chemical formulation. Compounds should be soluble in aqueous solution at >10 μg/ml. Solubility of >50 μg/ml is preferred.

[5] = In vitro ADME: metabolic potential / microsomal stability, species not stated
Description: Metabolism (microsome, S9 fraction, CYP450): Liver Cytochrome P450 (CYP450) enzymes are the major route for xenobiotic metabolism and microsomal and hepatocyte stability is the best predictor of pharmacokinetic half-life. Cross-species comparisons of metabolism in liver microsomes can predict potential issues with liver toxicity in humans. Selected active compounds are tested in liver microsomes from efficacy species (mouse), toxicity species (rat, dog, monkey), and humans for metabolic stability.
CMB-003319 was evaluated for its in vitro ADME properties.
Compounds were sent for in vitro ADME tests to evaluate their ADME properties.

[6] = tested on: proteasome activity (Ubi-YFP degradation); test: Proteasome activity assay (Ubi-YFP in HeLa cells); format: cell-based
Description: FIG. 7. Arylsulfanyl pyrazolones prevent MG132-induced accumulation of Ubi-YFP. HeLa cells were co-transfected with Ubi-YFP and CMV-CFP plasmids, treated with 1 μM MG132 and 25 μM arylsulfanyl pyrazolones and Ubi-YFP fluorescence intensity normalized to CFP.
Since the CMB-003299 cytotoxicity of SOD1 protein aggregates may involve inhibition of proteasome activity, compounds that stimulate proteasome activity could reverse or prevent mutant SOD1-induced cytotoxicity. Thus, active compounds were tested for the ability to stimulate proteasome activity using a cell line expressing ubiquitin-conjugated YFP [Ubi-YFP 74]. In these cells, increased proteasome activity causes increased degradation of Ubi-YFP and decreased YFP fluorescence. Conversely, compounds that inhibit proteasome activity increase accumulation of Ubi-YFP and enhanced YFP fluorescence. As expected, MG132 augments YFP fluorescence intensity ˜3-fold compared to untreated controls (FIG. 7). […] Protein aggregates are present in the absence of MG132 and aggregation is suppressed following treatment with a provided compound.
HeLa cells (20,000/chamber) were plated on 8 chambered Tissue-tek coverglass pretreated with 1 mg/ml poly-D-lysine and allowed to adhere for 18 h at 37° C./5% CO2. Cells were transfected with 0.2 μg each CMV-CFP and Ubi-YFP plasmids using Lipofectamine 2000 according to manufacturer's instructions. Cells were allowed to express CFP and Ubi-YFP for 18 h followed by a 6 h incubation with test compounds (25 μM). MG132 (1 μM) was added for a final 18 h incubation and Ubi-YFP degradation assessed by fluorescence microscopy. Fluorescence intensity of CFP and YFP was calculated on a cell-by-cell basis from captured images using AxioVision software (Zeiss). YFP fluorescence was normalized to CFP fluorescence.

[7] = tested on: human HSP70 promoter; test: Activation of cellular heat shock response (HeLa hse-luc luciferase reporter); format: cell-based; settings: 8 h
Description: FIG. 6. Arylsulfanyl pyrazolones fail to induce heat shock response in Hsp 70 promoter assays. HeLa hse-luc cells were treated with arylsulfanyl pyrazolones (1 μM-100 μM), celestrol (1 μM-5 μM), or CdCl2 (10 μM-100 μM), for 8 h and activation of the heat shock response determined by HSP70 promoter activity.
(§1) Mechanism of action studies have been initiated for provided compounds. provided compounds active in the cytotoxicity protection assay were initially assayed for the ability to prevent SOD1 aggregation using manual, low-throughput methods. […] The ability of provided compounds to induce expression of molecular chaperones was also tested using stably-transfected HeLa cells (HeLa hse-luc) expressing a luciferase reporter gene under the control of the human HSP70 promoter. This HeLa hse-luc reporter system was used previously to identify small-molecule activators of the heat shock response (Westerheide et al. J. Biol. Chem. 2004, 279(53), 56053-56060).
HeLa cells, stably transfected with a luciferase reporter plasmid under control of the HSP70 promoter, were plated in a 96 well plate at a density of 7500 cells/100 μl. […] Cells were lysed by the addition of 100 μl BrightGlo reagent (Promega) according to manufacturer's instructions and luciferase activity measured by quantifying luminescence signal. […]

[8] = tested on: PC12 cells expressing G93A mutant SOD1; test: Mutant SOD1 protein aggregation; format: cell-based
Description: (§2) In PC12 cells that express wild-type SOD1, SOD1 was diffusely localized throughout the cell (Matsumoto et al., J. Cell. Biol. 2005, 171(1), 75-85). […] Therefore, these effects are likely to be due to MG132-induced proteasome inhibition, and not due to an off-target effect of MG132.
The identification of a positive control is a crucial step in assay development. Thus, PC12 cells expressing G85R or G93A mutant SOD1 were treated with MG132 to induce protein aggregation, and then co-treated with candidate chemical suppressors of protein aggregation. Two compounds with similar activity were identified in these experiments: geldanamycin and radicicol. Both compounds induce heat shock transcription factor […], which in turn induces the heat shock response (FIG. 4).
as §1, with “This HeLa hse-luc reporter system was used previously to identify small-molecule activators of the heat shock response (Westerheide et al. J. Biol. Chem. 2004, 279(53), 56053-56060).” left out

[9] = tested on: PC12 cells expressing G93A SOD1; test: Sensitivity of PC12 cells to proteasome inhibitor, calcein-AM viability; format: cell-based
Description: (§3) FIGS. 1A-C. […] Cell survival was determined using the viability stain calcein-AM.

[10] = tested on: PC12 cells expressing no SOD1, wild type SOD1 and G85R SOD1; test: as above; format: cell-based
Description: as §3

[11] = tested on: PC12 cells expressing G85R SOD1; test: Mutant SOD1 protein aggregation assay; format: cell-based
Excerpt: Compounds that are active in the above assay could theoretically protect against mutant SOD1-induced cytotoxicity through a number of mechanisms, including the following: 1) compounds could nonspecifically block or reverse protein aggregation via chaperone induction, as observed for radicicol and geldanamycin; 2) compounds could block or reverse the aggregation of a specific aggregated protein form; 3) compounds could interfere with an event downstream of protein aggregation that plays a critical role in mutant SOD1-induced cytotoxicity (e.g., proteasome function); and 4) compounds could act directly on SOD1 in a manner that prevents mutant SOD1 aggregation. These possibilities were tested using an assay that directly measures protein aggregation. In addition, unlike the high throughput cytotoxicity protection assay, the protein aggregation assay is based on G85R SOD1; this broadens the scope of the screening strategy, and should eliminate compounds with highly specific activity (i.e., G93A SOD1 limited) against protein aggregation.
as §2
The identification of a positive control is a crucial step in assay development. Thus, PC12 cells expressing G85R or G93A mutant SOD1 were treated with MG132 to induce protein aggregation, and then co-treated with candidate chemical suppressors of protein aggregation. […]
To allow this assay to be used in a high-throughput manner, a Cellomics Arrayscan® high content microscopy system was used for screening and quantification. […]
Arrayscan images were recorded using a 20× objective and the XF93-TRITC filter set in channel 1 for the Image-iT WGA plasma membrane dye or the XF93-FITC filter set for SOD1-YFP and analyzed using Cellomics spot detector software. […] Data were recorded as spot count (aggregate)/object (cell).

[12] = tested on: PC12 cells expressing wild-type SOD1; test: SOD1 protein aggregation, wild type control line; format: cell-based; settings: cells treated with MG132
Description: FIGS. 3A-F. Mutant but not wild type SOD1 aggregates in cells treated with the proteasome inhibitor MG132. Fluorescence micrographs of PC12 cells expressing YFP tagged wild type (WT), G93A mutant (G93A), and G85R mutant (G85R)SOD1 proteins (3A-C). The micrographs show the effects of treating cells with 200 nM MG132 for 24 hours (untreated cells are shown in insets on left, 3D-F, respectively). The wild type SOD1 expressing cells are unaffected while cells expressing mutant SOD1 show large perinuclear aggregates.
as §2

[13] = tested on: PC12 cells that express mutant G93A SOD1; test: Mutant SOD1-induced cytotoxicity protection assay; settings: rat, 48 h
Description: This idea was tested by examining the sensitivity of PC12 cells to SOD1 aggregates in the presence and absence of proteasome inhibitor MG132. PC12 cells expressing no SOD1, wild type SOD1, G85R SOD1 or G93A SOD1 were grown with or without MG132 (FIG. 1).
PC12 cells expressing G93A SOD1 were treated with 100 nM MG132 with or without co-treatment with geldanamycin or radicicol.

[14] = NADPH dependent rat liver microsomal metabolite study by HPLC; format: in vitro ADME; settings: NADPH dependent rat liver microsomes, up to 60 minutes
Description: TC-II-68 and TC-II-70 were proposed as possible metabolites and prepared before the study.
After 0, 5, 10, 20, 40, and 60 minutes incubation with rat liver microsome, 50 μL acetonitrile was added to quench reactions. The reaction mixture was vortexed and incubated in an ice bath for 2 h. The samples were centrifuged to remove the precipitated protein. The supernatant solutions were loaded directly for HPLC analysis.

SMILES: Cc1cc(SCc2cc(=O)[nH][nH]2)c(Cl)cc1Cl [CMB-003319]
rat liver microsomal stability, in words [1]: poor microsomal stability
CaCO-2 permeability, in words [2]: medium
plasma stability, in words [3]: poor
aqueous-solubility, in words [4]: medium
metabolic potential [5]: medium
effect on MG132-induced Ubi-YFP fluorescence ([6]; 25 μM compound, 1 μM MG132): strongly inhibit

SMILES: [Cl][Cd][Cl] [CdCl2]
luciferase activity (HSP70 promoter) [7]: strongly induced luciferase activity

SMILES: CC(C)C[C@@H](C=O)NC(=O)[C@H](CC(C)C)NC(=O)[C@H](CC(C)C)NC(=O)OCc1ccccc1 [MG132] (Cbz-Leu-Leu-Leu-aldehyde)
cells with protein aggregates ([8]; following treatment with MG132): ~75%
sensitivity of G93A SOD1 cells relative to the other lines [9]: approximately 5 fold
toxicity, in words ([9]; 100 nM, 48 hours): selectively toxic
IC50 ([9]; Rattus norvegicus, PC-12, read-out: IC50 of proteasome inhibitor on cell viability): ~75 nM
toxicity, in words ([10]; 100 nM, 24 hours, any of the cell lines): no toxicity
IC50 ([10]; Rattus norvegicus, PC-12, cells expressing no SOD1, wild type SOD1 and G85R SOD1, read-out: IC50 of proteasome inhibitor on cell viability): ~400 nM
cells containing protein aggregates ([11]; cells treated with MG132): up to 75%
aggregation, in words [12]: no aggregation was observed
YFP fluorescence intensity compared to untreated controls ([6]; 1 μM): ~3 fold

SMILES: C[C@@H]1C[C@H]2O[C@@H]2/C=C\C=C\C(=O)Cc2c(Cl)c(O)cc(O)c2C(=O)O1 [Radicicol, reference compound]
effect on protein aggregation, in words ([8]; MG132-treated cells): reduced formation of protein aggregates
efficacy (maximum viability at optimum dosage) [13]: 80%
proportion of cells with aggregates ([11]; G85R or G93A mutant SOD1 cells, MG132 plus co-treatment, 75% without): 25%
effect on protein aggregation, in words ([11]; MG132-induced aggregation): decreases mutant SOD1 aggregation

% Mean ± S.E. ([1]; 0 min): 100 ± 26.4%
RR Mean (Response Ratio) ([1]; 0 min): 2.529
% Mean ± S.E. ([1]; 20 min): 12.4 ± 0.89%
RR Mean (Response Ratio) ([1]; 20 min): 0.314
SMILES: O=c1cc(CSc2ccc(Cl)cc2)[nH][nH]1 [TC-I-165, 5-((4-Chlorophenylthio)methyl)-1H-pyrazol-3(2H)-one]
microsomal metabolites [14]: only TC-II-68 was a direct metabolite; also recorded: the only direct metabolite from TC-I-165 was TC-II-68; also recorded: TC-II-70 is not a metabolite

SMILES: CC1=C(O)C(=O)C=C2C1=CC=C1[C@@]2(C)CC[C@@]2(C)[C@@H]3C[C@](C)(C(=O)O)CC[C@]3(C)CC[C@]12C [celastrol, celestrol]
luciferase activity (HSP70 promoter) [7]: strongly induced luciferase activity
